In patent US10781215B2, “Heterobicyclic compounds useful as modulators of IL-12, IL-23 and/or IFNα responses” (BRISTOL-MYERS SQUIBB COMPANY, priority 2016, dated 2020) one finds IC50 and EC50 data, which are given here for eight molecules.

Assay [1] relates to IL-23 stimulated Kit225 T cells (STAT-dependent luciferase reporter). The experiment in a line: Kit225 T cell assay, IL-23 stimulated STAT-dependent luciferase reporter. The class given is cell-based. The settings on record: 20 ng/mL human recombinant IL-23, 5-6 hours. As to the method: (§1) Kit225 T cells with a stably-integrated STAT-dependent luciferase reporter were plated in RPMI (Gibco) containing 10% heat-inactivated FBS (Gibco) and 100 U/mL PenStrep (Gibco). The cells were then stimulated with either 20 ng/mL human recombinant IL-23 or 200 U/mL human recombinant IFNα (PBL InterferonSource) for 5-6 hours. Luciferase expression was measured using the STEADY-GLO® Luciferase Assay System (Promega) according to the manufacturer's instructions. Inhibition data were calculated by comparison to no inhibitor control wells for 0% inhibition and non-stimulated control wells for 100% inhibition. Dose response curves were generated to determine the concentration required to inhibit 50% of cellular response (IC50) as derived by non-linear regression analysis.
For orientation: A reporter such as luciferase makes a cellular process visible.

Assay [2] relates to IFNα stimulated Kit225 T cells (STAT-dependent luciferase reporter). Briefly: Kit225 T cell assay, IFNα stimulated STAT-dependent luciferase reporter. The class given is cell-based. The settings on record: 200 U/mL human recombinant IFNα, 5-6 hours. As to the method: as §1
For assay [3], the target named is T1, recombinant human His-tagged Tyk2 pseudokinase domain (His-TVMV-Tyk2, 575-869) (Homo sapiens, UniProt P29597).
T1 construct: made in house
T1 sequence (P29597 with tags, fused parts or gaps): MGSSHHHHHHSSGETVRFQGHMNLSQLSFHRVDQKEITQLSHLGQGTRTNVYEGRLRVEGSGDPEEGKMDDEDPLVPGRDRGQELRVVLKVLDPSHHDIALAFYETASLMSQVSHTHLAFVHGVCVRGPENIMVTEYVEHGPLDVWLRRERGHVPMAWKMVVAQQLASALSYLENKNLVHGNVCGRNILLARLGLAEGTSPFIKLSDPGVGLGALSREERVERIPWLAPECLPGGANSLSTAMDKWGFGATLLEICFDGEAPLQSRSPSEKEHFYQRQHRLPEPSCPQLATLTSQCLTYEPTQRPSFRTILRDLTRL
The experiment in a line: Probe displacement assay (HTRF format). The class given is binding. The note with it: fluorescein labeled probe, Tyk2 pseudokinase domain 0.5 nM. As to the method: To 10 μL 26 nM fluorescein labeled probe plus 0.2 nM anti-6×His-terbium labeled antibody (Medarex, labeled by Cisbio) in assay buffer (20 mM Hepes pH 7.5, 150 mM NaCl, 10 mM MgCl2, 2 mM DTT, 50 μg/mL BSA, and 0.015% Brij 35) was added 10 μL recombinant human His-tagged Tyk2 pseudokinase domain (His-TVMV-Tyk2, 575-869) to a final concentration of 0.5 nM. After 1 h at room temperature, the HTRF signal (ratio of fluorescence intensities at emission wavelengths for fluorescein acceptor at 520 nm and terbium donor at 495 nm) was measured on an Envision Plate Reader. Percent inhibition was calculated by comparison to a control without inhibitor and a control without protein. Dose response curves were generated to determine the concentration required for inhibiting 50% of the HTRF signal (EC50).

Each structure is given as a SMILES string. pEC50, pIC50: −log10 of the molar value.

For the molecule `Cc1nc2c(Nc3ncccc3S(C)(=O)=O)cc(Nc3ccc(F)cn3)nc2[nH]1` [Example 41, 5-N-(5-fluoropyridin-2-yl)-7-N-(3-methanesulfonylpyridin-2-yl)-2-methyl-3H-imidazo[4,5-b]pyridine-5,7-diamine], the negative-log IC50 (pIC50) in assay [1] was 7.55; in assay [2], 7.17. Further, the pEC50 in assay [3] is 9.40.

Regarding `Cc1nc2c(Nc3ncccc3S(C)(=O)=O)cc(Nc3ccc(N4CCOCC4)cn3)nc2[nH]1` [Example 50, 7-N-(3-methanesulfonylpyridin-2-yl)-2-methyl-5-N-[5-(morpholin-4-yl)pyridin-2-yl]-3H-imidazo[4,5-b]pyridine-5,7-diamine], the negative-log IC50 (pIC50) is 6.44 in assay [1] and 6.57 in assay [2]. Moreover, in assay [3], the negative-log EC50 (pEC50) was 8.96.

As to `Cc1cccc(Nc2cc(Nc3ncccc3S(C)(=O)=O)c3nc(C)[nH]c3n2)n1` [Example 49, 7-N-(3-methanesulfonylpyridin-2-yl)-2-methyl-5-N-(6-methylpyridin-2-yl)-3H-imidazo[4,5-b]pyridine-5,7-diamine], the results for the pIC50 in assay [1] and in assay [2] were 6.97 and 7.01, respectively. Moreover, in assay [3], the negative-log EC50 (pEC50) is 9.15.

With `COc1ccc(Nc2cc(Nc3ncccc3S(C)(=O)=O)c3nc(C)[nH]c3n2)nn1` [Example 45, 7-N-(3-methanesulfonylpyridin-2-yl)-5-N-(6-methoxypyridazin-3-yl)-2-methyl-3H-imidazo[4,5-b]pyridine-5,7-diamine], the results for the pIC50 in assay [1] and in assay [2] were 6.34 and 6.54, respectively. In assay [3], the negative logarithm of the EC50 (pEC50) is 8.92.

With `Cc1ccnc(Nc2cc(Nc3ncccc3S(C)(=O)=O)c3nc(C)[nH]c3n2)c1` [Example 46, 7-N-(3-methanesulfonylpyridin-2-yl)-2-methyl-5-N-(4-methylpyridin-2-yl)-3H-imidazo[4,5-b]pyridine-5,7-diamine], the negative-log IC50 (pIC50) in assay [1] was 5.53; in assay [2], 6.49. Further, in assay [3], the pEC50 was 8.74.

As to `Cc1cnc(Nc2cc(Nc3ncccc3S(C)(=O)=O)c3nc(C)[nH]c3n2)cn1` [Example 48, 7-N-(3-methanesulfonylpyridin-2-yl)-2-methyl-5-N-(5-methylpyrazin-2-yl)-3H-imidazo[4,5-b]pyridine-5,7-diamine], the pIC50 in assay [1] is 6.13; in assay [2], 6.51. For the same molecule, the pEC50 in assay [3] is 9.22.

Consider `COc1ccc(Nc2cc(Nc3ncccc3S(C)(=O)=O)c3nc(C)[nH]c3n2)nc1` [Example 42, 7-N-(3-methanesulfonylpyridin-2-yl)-5-N-(5-methoxypyridin-2-yl)-2-methyl-3H-imidazo[4,5-b]pyridine-5,7-diamine], for which the negative-log IC50 (pIC50) in assay [1] is 7.12; in assay [2] it was 7.17. For the same molecule, the negative logarithm of the EC50 (pEC50) in assay [3] was 9.22.

Consider `Cc1nc2c(Nc3ncccc3S(C)(=O)=O)cc(Nc3cc(F)ccn3)nc2[nH]1` [Example 43, 5-N-(4-fluoropyridin-2-yl)-7-N-(3-methanesulfonylpyridin-2-yl)-2-methyl-3H-imidazo[4,5-b]pyridine-5,7-diamine], for which the figures for the negative-log IC50 (pIC50) in assay [1] and in assay [2] were 7.28 and 7.35, respectively. Besides, the pEC50 in assay [3] was 9.10.

Usually pIC50 stands for the negative decadic logarithm of the IC50, by convention in mol/L. As a reminder, the pEC50 is the EC50 on a negative log10 scale, so that one unit is a factor of ten.
